This note sets out measurements from patent US9062051B2, “Compounds and pharmaceutical compositions thereof for the treatment of proliferative disorders” (GALAPAGOS NV, priority 2014, dated 2015).

The target of one assay is T1, Recombinant EphA7 (Homo sapiens, UniProt Q15375).
T1 construct: purchased Carna 08-126
Description: EphA7 assay (33P incorporation into poly GT, filter plate). Type of assay: biochemical.

For another assay, the target named is T2, Recombinant EphB2 (Homo sapiens, UniProt P29323).
T2 construct: purchased Carna 08-129
T2 sequence (P29323 19-986 isoform P29323-2 limits assumed): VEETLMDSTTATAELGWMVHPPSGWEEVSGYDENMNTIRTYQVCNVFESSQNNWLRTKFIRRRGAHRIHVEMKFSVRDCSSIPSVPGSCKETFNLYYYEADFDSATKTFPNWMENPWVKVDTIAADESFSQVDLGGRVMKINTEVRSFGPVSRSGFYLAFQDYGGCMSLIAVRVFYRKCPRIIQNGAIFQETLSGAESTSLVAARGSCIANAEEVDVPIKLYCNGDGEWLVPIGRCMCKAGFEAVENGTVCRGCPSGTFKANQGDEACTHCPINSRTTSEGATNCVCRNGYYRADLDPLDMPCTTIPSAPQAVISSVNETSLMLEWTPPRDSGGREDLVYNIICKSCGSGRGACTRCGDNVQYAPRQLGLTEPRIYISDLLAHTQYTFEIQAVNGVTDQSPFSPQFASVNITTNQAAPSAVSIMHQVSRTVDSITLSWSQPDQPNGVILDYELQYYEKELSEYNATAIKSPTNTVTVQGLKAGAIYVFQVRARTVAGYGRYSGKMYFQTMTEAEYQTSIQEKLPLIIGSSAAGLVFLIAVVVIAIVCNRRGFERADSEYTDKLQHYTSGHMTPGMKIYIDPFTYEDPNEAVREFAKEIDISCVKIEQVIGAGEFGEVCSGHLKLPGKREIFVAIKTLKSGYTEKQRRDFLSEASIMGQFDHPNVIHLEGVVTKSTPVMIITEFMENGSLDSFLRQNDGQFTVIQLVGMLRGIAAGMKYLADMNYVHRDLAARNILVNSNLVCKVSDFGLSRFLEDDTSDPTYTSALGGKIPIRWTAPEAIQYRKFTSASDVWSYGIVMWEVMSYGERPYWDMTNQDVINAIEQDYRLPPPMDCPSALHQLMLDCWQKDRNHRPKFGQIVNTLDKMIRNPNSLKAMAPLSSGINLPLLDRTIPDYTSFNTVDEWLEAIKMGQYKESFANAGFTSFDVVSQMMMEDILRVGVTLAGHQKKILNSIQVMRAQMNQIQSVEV
As to the kind of experiment: EphB2 assay (33P incorporation into poly GT, filter plate). Conditions: read-out: EphB2 potency IC50. It is filed as biochemical.

Like-named read-outs stand apart in the source and are kept apart here. Some results are limits rather than exact numbers.

T1 sequence (Q15375 579-998 limits assumed): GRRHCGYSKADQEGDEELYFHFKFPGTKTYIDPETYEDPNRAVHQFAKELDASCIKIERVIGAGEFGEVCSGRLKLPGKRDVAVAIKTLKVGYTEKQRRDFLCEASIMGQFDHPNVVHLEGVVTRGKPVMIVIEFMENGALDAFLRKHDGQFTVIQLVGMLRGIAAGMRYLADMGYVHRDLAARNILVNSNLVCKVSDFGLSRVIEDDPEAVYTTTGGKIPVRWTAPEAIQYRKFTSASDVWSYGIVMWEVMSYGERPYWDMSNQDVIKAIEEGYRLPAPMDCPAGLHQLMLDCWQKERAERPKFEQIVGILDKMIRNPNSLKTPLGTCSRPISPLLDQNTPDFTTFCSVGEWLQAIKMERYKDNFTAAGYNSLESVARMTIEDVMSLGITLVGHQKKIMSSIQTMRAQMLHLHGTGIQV

A word on the IC50: it is the concentration that inhibits the measured activity by half. Regarding `COc1cc(OC)cc(C(=O)Nc2ccc(C)c(-c3ccc4c(C5(O)CC5)n[nH]c4n3)c2)c1` [Compound 29, N-{3-[3-(1-Hydroxy-cyclopropyl)-1H-pyrazolo[3,4-b]pyridin-6-yl]-4-methyl-phenyl}-3,5-dimethoxy-benzamide], the IC50 is > 1000 nM on Recombinant EphA7 (EphA7 potency, 0.15 μM ATP, read-out: IC50) and 0.01 to 25 nM at Recombinant EphB2.

Consider `Cc1ccc(NC(=O)c2cccc(C(F)(F)F)c2)cc1-c1cc(C)c2c(N)n[nH]c2n1` [Compound A, N-(3-(3-amino-4-methyl-1H-pyrazolo[3,4-b]pyridin-6-yl)-4-methylphenyl)-3-(trifluoromethyl)benzamide], for which the IC50 at Recombinant EphA7 (comparative compounds, read-out: EphA7 potency IC50) was > 1000 nM; at Recombinant EphB2, 0.01 to 25 nM.
